Measured values taken from patent US20140018537A1, “GPR119 AGONIST” (NIPPON CHEMIPHAR CO., LTD., priority 2008, published 2014).

system: not given; test: not given; details: not given

melting point [°C] | SMILES
92 to 95 | CCOC(=O)c1ccc(OCc2ccc(C3CCN(C(=O)OC(C)(C)C)CC3)cn2)cc1F [Example 9, tert-Butyl 4-[2-(4-ethoxycarbonyl-3-fluorophenoxymethyl)pyridin-5-yl]piperidine-1-carboxylate]
135 to 138 | COc1cc(S(C)(=O)=O)ccc1OCc1ccc(C2CCN(C(=O)OC(C)(C)C)CC2)cn1 [Example 26, tert-Butyl 4-[2-(4-methanesulfonyl-2-methoxyphenoxymethyl)pyridin-5-yl]piperidine-1-carboxylate]
94 to 96 | CC(C)(C)OC(=O)N1CCC(c2ccc(COc3cccc([N+](=O)[O-])c3)nc2)CC1 [Example 30, tert-Butyl 4-[2-(3-nitrophenoxymethyl)pyridin-5-yl]piperidine-1-carboxylate]
149 to 150 | CC(C)(C)OC(=O)N1CCC(c2ccc(COc3ccc([N+](=O)[O-])cc3)nc2)CC1 [Example 33, tert-Butyl 4-[2-(4-nitrophenoxymethyl)pyridin-5-yl]-piperidine-1-carboxylate]
171 to 173 | CC(C)(C)OC(=O)N1CCC(c2ccc(COc3ccc(NS(C)(=O)=O)cc3)nc2)CC1 [Example 35, tert-Butyl 4-[2-(4-methanesulfonylaminophenoxymethyl)pyridin-5-yl]piperidine-1-carboxylate]
119 to 121 | CCOC(=O)N1CCC(c2ccc(COc3ccc(S(C)(=O)=O)cc3)nc2)CC1 [Example 43, Ethyl 4-[2-(4-methanesulfonylphenoxymethyl)pyridin-5-yl]piperidine-1-carboxylate]
114 to 117 | CC(C)COC(=O)N1CCC(c2ccc(COc3ccc(S(C)(=O)=O)cc3)nc2)CC1 [Example 44, Isobutyl 4-[2-(4-methanesulfonylphenoxymethyl)pyridin-5-yl]piperidine-1-carboxylate]
140 to 142 | CC(C)(C)CC(=O)N1CCC(c2ccc(COc3ccc(S(C)(=O)=O)cc3)nc2)CC1 [Example 46, 1-[4-[2-(4-Methanesulfonylphenoxymethyl)pyridin-5-yl]piperidin-1-yl]-3,3-dimethylbutan-1-one]
164 to 166 | CCCc1cnc(N2CCC(c3ccc(COc4ccc(S(C)(=O)=O)cc4)nc3)CC2)nc1 [Example 49, 2-[4-[2-(4-Methanesulfonylphenoxymethyl)pyridin-5-yl]piperidin-1-yl]-5-propylpyrimidine]

target: T1, human GPR119 (Homo sapiens, UniProt Q8TDV5); test: Intracellular cAMP increase in human GPR119 introduced cells (HitHunter cAMP XS+ Assay); type: cell-based; details: Table 17; method similar to Example 86; hGPR119 stable cells, intracellular cAMP
T1 construct: expressed in transfected cells
T1 sequence (Q8TDV5 1-335): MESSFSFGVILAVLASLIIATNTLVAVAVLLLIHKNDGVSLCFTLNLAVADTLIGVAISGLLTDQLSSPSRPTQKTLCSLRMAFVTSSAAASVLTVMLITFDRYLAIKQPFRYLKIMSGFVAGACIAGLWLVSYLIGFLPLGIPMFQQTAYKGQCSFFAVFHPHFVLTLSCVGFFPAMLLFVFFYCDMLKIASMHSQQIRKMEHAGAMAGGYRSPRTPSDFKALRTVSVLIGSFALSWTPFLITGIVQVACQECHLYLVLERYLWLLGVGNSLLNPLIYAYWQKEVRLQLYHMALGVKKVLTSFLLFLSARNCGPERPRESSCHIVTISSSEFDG
Text: The GPR119 agonist effect was studied by measuring the effect of an analyte on increase of intracellular amount of cAMP in human GPR119 introduced cells. The testing method is described below.
(1) Construction of the Stable Cell Line Expressing Human G Protein-Coupled-Receptor 119 (hGPR119) Human GPR119 gene (NM 178471) is purchased from American Type Culture Collection (ATCC No. 10807349). Hind III site-added forward side primer ([…]: sequence No. 1) and Apa I site-added reverse side primer ([…]: sequence No. 2) are designed. The target gene is amplyfied by a polymerase chain reaction (PCR) method using KOD-Plus-Ver. 2 (TOYOBO #KOD-211). PCR is conducted by repeating three steps consisting of the step of 98° C.-10 seconds, the step of 55° C.-30 seconds, and the step of 68° C.-1 minute and 10 seconds in 35 cycles. The amplified PCR product is inserted into pcDNA5/FRT/TO (Invitrogen #V6520-20) plasmid. Cells, which can constantly express the target gene with tetracycline, are constructed using Flp-In T-REx-systen (invitorogen).
(2) Measurement of Intracellular Cyclic Adenosine Monophosphate (cAMP)
The hGPR119 introduced cells prepared in (1) are plated on a 96-well plate using Dulbecco's Modified Eagle Medium containing heat-inactived 10% fetal bovine serum. After incubation of 24 hours, tetracyclin (invitrogen #Q10019) is added to the culture medium to induce hGPR119 gene expression. After further incubation of 24 hours, the cells are stimulated with 0.5 mM 3-ISOBUTYL-1-METHYLXANTHINE (Sigma #17018) phosphate buffer containing the analyte at 37° C. for 30 minutes. The amount of the intracellular cAMP is measured by using FLUOstar Optima (BMG LABTECH) according to the protocol of HitHunter™ cAMP XS+Assay (GE Healthcare #90007503) to give the agonist activity of the analyte to the GPR119 receptor.
(1) Construction of the Stable Cell Line Expressing Human G-Protein Coupled Receptor 119 (hGPR119) hGPR119 gene (NM 178471) was purchased from American Type Culture Collection (ATCC No. 10807349). The forward primer that was added a HindIII site ([…] (sequence number 1)), and the reverse primer that was added an ApaI site ([…] (sequence number 2)) were designed, the target gene was amplified by polymerase chain reaction (PCR) using a KOD-Plus-Ver.2 (TOYOBO #KOD-211). PCR was repeated 3 steps (98° C. for 10 sec, 55° C. for 30 sec, 68° C. for 1 min 15 sec) by 35 cycles. Amplified PCR product was inserted in pcDNA5/FRT/TO (Invitrogen #V6520-20), and the stable cell line that expresses target gene when induced with tetracycline was created using the Flp-In T-Rex system (Invitrogen).
(2) Measuring Method of Intracellular Cyclic Adenosine Monophosphate (cAMP) hGPR119 stable cells made by above-mentioned (1) were plated on 96 well plates in Dulbecco's Modified Eagle Medium containing 10% heat-inactivated FBS. After 24 hours, the hGPR119 expression was induced by adding medium containing tetracycline (Invitrogen #Q10019) and incubating for another 24 hours. Following incubation, cells were stimulated by 0.5 mM 3-ISOBUTYL-1-METHYLXANTHINE (Sigma #17018) phosphate buffered saline containing test compound for 30 minutes at 37° C. Agonist activity of test compound to the GPR119 receptor was estimated by measuring the intracellular cAMP concentration using a Fluostar optima plate reader (BMG LABTECH) according to the manufacturer's protocol of the HitHunter™ cAMP XS+Assay (GE Healthcare #90007503).
The examination was performed by the method similar to Example 86 (Pharmacological experiment 1)-(1), -(2).

EC50 [nM] | SMILES
54.7 | CC(C)(C)OC(=O)N1CCC(c2ccc(COc3ccc(S(C)(=O)=O)cc3F)nc2)CC1 [Example 12, tert-Butyl 4-[2-(2-fluoro-4-methanesulfonylphenoxymethyl)pyridin-5-yl]piperidine-1-carboxylate]
34 | CC(C)(C)OC(=O)N1CCC(c2ccc(COc3ccc(-n4cnnn4)cc3)nc2)CC1 [Example 17, tert-Butyl 4-[2-[4-(tetrazol-1-yl)phenoxymethyl]pyridin-5-yl]piperidine-1-carboxylate]
85.4 | CC(C)(C)OC(=O)N1CCC(c2ccc(COc3ccc(S(C)(=O)=O)c(F)c3)nc2)CC1 [Example 18, tert-Butyl 4-[2-(3-fluoro-4-methanesulfonylphenoxymethyl)pyridin-5-yl]piperidine-1-carboxylate]
59.3 | CC(C)(C)OC(=O)N1CCC(c2ccc(COc3ccc(S(N)(=O)=O)cc3)nc2)CC1 [Example 21, tert-Butyl 4-[2-(4-sulfamoylphenoxymethyl)pyridin-5-yl]piperidine-1-carboxylate]
24 | Cc1cc(S(C)(=O)=O)ccc1OCc1ccc(C2CCN(C(=O)OC(C)(C)C)CC2)cn1 [Example 22, tert-Butyl 4-[2-(4-methanesulfonyl-2-methylphenoxymethyl)pyridin-5-yl]piperidine-1-carboxylate]
21.2 | CC(C)(C)OC(=O)N1CCC(c2ccc(COc3ccc(S(C)(=O)=O)cc3Cl)nc2)CC1 [Example 25, tert-Butyl 4-[2-(2-chloro-4-methanesulfonylphenoxymethyl)pyridin-5-yl]piperidine-1-carboxylate]
80.6 | CC(C)(C)OC(=O)N1CCC(c2ccc(COc3ccc(-n4cnnn4)cc3F)nc2)CC1 [Example 37, tert-Butyl 4-[2-[2-fluoro-4-(tetrazol-1-yl)phenoxymethyl]pyridin-5-yl]piperidine-1-carboxylate]
257 | CCc1cnc(N2CCC(c3ccc(COc4ccc(-n5cnnn5)cc4)nc3)CC2)nc1 [Example 51, 5-Ethyl-2-[4-[2-[4-(tetrazol-1-yl)phenoxymethyl]pyridin-5-yl]piperidin-1-yl]pyrimidine]
29.3 | CC(C)(C)OC(=O)N1CCC(c2cnc(COc3ccc(S(C)(=O)=O)cc3)c(Cl)c2)CC1 [Example 71, tert-Butyl 4-[3-chloro-2-(4-methanesulfonylphenoxymethyl)pyridin-5-yl]piperidine-1-carboxylate]
48 | CC(C)(C)OC(=O)N1CCC(c2cnc(COc3ccc(S(C)(=O)=O)cc3)c(C(F)(F)F)c2)CC1 [Example 73, tert-Butyl 4-[2-(4-methanesulfonylphenoxymethyl)-3-trifluoromethylpyridin-5-yl]piperidine-1-carboxylate]
22.4 | CC(C)(C)OC(=O)N1CCC(c2cnc(COc3ccc(S(C)(=O)=O)cc3)c(F)c2)CC1 [Example 75, tert-Butyl 4-[3-fluoro-2-(4-methanesulfonylphenoxymethyl)pyridin-5-yl]piperidine-1-carboxylate]
142 | CC(C)(C)OC(=O)N1CCC(c2ccc(CCc3ccc(S(C)(=O)=O)cc3)nc2)CC1 [Example 79, tert-Butyl 4-[2-[2-(4-methanesulfonylphenyl)ethyl]pyridin-5-yl]piperidine-1-carboxylate]
39.2 | Cc1cc(C2CCN(C(=O)OC(C)(C)C)CC2)cnc1COc1ccc(S(C)(=O)=O)cc1Br [Example 81, tert-Butyl 4-[2-(2-bromo-4-methanesulfonylphenoxymethyl)-3-methylpyridin-5-yl]piperidine-1-carboxylate]
58.8 | Cc1cc(S(C)(=O)=O)ccc1OCc1ncc(C2CCN(C(=O)OC(C)(C)C)CC2)cc1C [Example 82, tert-Butyl 4-[2-(4-methanesulfonyl-2-methylphenoxymethyl)-3-methylpyridin-5-yl]piperidine-1-carboxylate]
21.9 | Cc1cc(C2CCN(C(=O)OC(C)(C)C)CC2)cnc1COc1ccc(-n2cnnn2)cc1F [Example 83, tert-Butyl 4-[2-[2-fluoro-4-(tetrazol-1-yl)phenoxymethyl]-3-methylpyridin-5-yl]piperidine-1-carboxylate]
128 | CC(C)(C)OC(=O)N1CCC(c2ccc(CSc3ccc(S(C)(=O)=O)cc3)nc2)CC1 [Example 84, tert-Butyl 4-[2-(4-methanesulfonylphenylthiomethyl)pyridin-5-yl]piperidine-1-carboxylate]

same assay, conditions: hGPR119 introduced cells, cAMP

GPR119 agonist effect (in words) | SMILES
excellent GPR119 agonist effect | CC(C)(C)OC(=O)N1CCC(c2ccc(COc3ccc(S(C)(=O)=O)cc3Cl)nc2)CC1 [Example 25, tert-Butyl 4-[2-(2-chloro-4-methanesulfonylphenoxymethyl)pyridin-5-yl]piperidine-1-carboxylate]
excellent GPR119 agonist effect | Cc1cc(C2CCN(C(=O)OC(C)(C)C)CC2)cnc1COc1ccc(-n2cnnn2)cc1F [Example 83, tert-Butyl 4-[2-[2-fluoro-4-(tetrazol-1-yl)phenoxymethyl]-3-methylpyridin-5-yl]piperidine-1-carboxylate]
